# Test results: the supplement of paper PMC11208160
# Assay: recombinant UMI read abundance after kanamycin selection (control-corrected) (log10(CPM+1)); higher = more efficient recombination; extreme values may be limits of the assay; sequences stand for … in AGTGCAGAGAAAATCGGCCAGTTTTCTCTGCCTGCAGTCCGCATGCCGTGGGACCCCTTGGGTTCTAACCTGTTGCCTAGATTTATGCAGCGGACTGCCTTTCTCCCAAAGTGATAAACCGG…AGGTTGGTTTCACT; site = the 11-nt donor
# Outline: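 Under IPTG (0.07 mM) plus kanamycin, or without selection, Escherichia coli carrying a UMI-tagged donor and donor-binding-loop pair library and a target plasmid for the IS621 bridge recombinase were plated in two replicates. Recombinant UMIs were PCR-amplified across the donor–target junction and sequenced. Counts were converted to CPM, averaged over replicates, scaled by control-derived factors and reported as log10(CPM+1).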
# 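Also: IS621 bridge recombinase in Escherichia coli cells against a fixed T5 target plasmid.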
row,Sequence,recombinant UMI read abundance (log10)
1,TAGCTAGCATGGACCGGTTTTCCCGGTAATCCGTATTTGGA (site TAGCTAGCTTG),0.447
2,TAGCTAGCATGGACCGGTTTTCCCGGTAATCCGTATTTGGA (site TAGCTAGCTTT),0.866
3,TAGCTCACATGGACCGGTTTTCCCGGTAATCCGTATTTGGC (site TAGCTCACTGC),1.5
4,TAGCTCGCATGGACCGGTTTTCCCGGTAATCCGTATTTGAA (site TAGCTAGCTTT),0.0173
5,TAGCTCGCATGGACCGGTTTTCCCGGTAATCCGTATTTGAA (site TAGCTCGCTTT),1.27
6,TAGCTCGCATGGACCGGTTTTCCCGGTAATCCGTATTTGAA (site TAGCTGGCTTT),0.0219
7,TAGCTCGCATGGACCGGTTTTCCCGGTAATCCGTATTTGAA (site TAGCTTGCTTT),0.0127
8,TAGGAACCATGGACCGGTTTTCCCGGTAATCCGTATTTGCG (site TAGGAAACTCG),0.374
9,TAGGAACCATGGACCGGTTTTCCCGGTAATCCGTATTTGCG (site TAGGAACCTCG),0.478
10,TAGGAACCATGGACCGGTTTTCCCGGTAATCCGTATTTGCG (site TAGGAAGCTCG),0.00966
11,TAGGAACCATGGACCGGTTTTCCCGGTAATCCGTATTTGCG (site TAGGAATCTCG),0.681
12,TAGGAAGCATGGACCGGTTTTCCCGGTAATCCGTATTTGCG (site TAGGAAACTCG),2.32
13,TAGGAAGCATGGACCGGTTTTCCCGGTAATCCGTATTTGCG (site TAGGAACCTCG),0.00974
14,TAGGAAGCATGGACCGGTTTTCCCGGTAATCCGTATTTGCG (site TAGGAAGCTCG),2.73
15,TAGGAAGCATGGACCGGTTTTCCCGGTAATCCGTATTTGCG (site TAGGAATCTCG),1.85
16,TAGGAATCATGGACCGGTTTTCCCGGTAATCCGTATTTGCC (site TAGGAATCTAG),1.1

row,Sequence,recombinant UMI read abundance (log10)
1,TAGGAATCATGGACCGGTTTTCCCGGTAATCCGTATTTGCC (site TAGGAATCTCG),0.458
2,TAGGAATCATGGACCGGTTTTCCCGGTAATCCGTATTTGCC (site TAGGAATCTGG),2.68
3,TAGGAATCATGGACCGGTTTTCCCGGTAATCCGTATTTGCC (site TAGGAATCTTG),1.74
4,TAGGACTCATGGACCGGTTTTCCCGGTAATCCGTATTTGCG (site TAGGAATCTCG),1.98
5,TAGGACTCATGGACCGGTTTTCCCGGTAATCCGTATTTGCG (site TAGGACTCTCG),2.75
6,TAGGACTCATGGACCGGTTTTCCCGGTAATCCGTATTTGCG (site TAGGAGTCTCG),1.05
7,TAGGACTCATGGACCGGTTTTCCCGGTAATCCGTATTTGCG (site TAGGATTCTCG),1.05
8,TAGGTACCATGGACCGGTTTTCCCGGTAATCCGTATTTGTT (site TAGGTACCTAA),0.0119
9,TAGGTTTCATGGACCGGTTTTCCCGGTAATCCGTATTTGCG (site TAGGTTTCTCG),1.99
10,TAGTAATCATGGACCGGTTTTCCCGGTAATCCGTATTTGCG (site TAGAAATCTCG),1.56
11,TAGTAATCATGGACCGGTTTTCCCGGTAATCCGTATTTGCG (site TAGCAATCTCG),2.29
12,TAGTAATCATGGACCGGTTTTCCCGGTAATCCGTATTTGCG (site TAGGAATCTCG),1.47
13,TAGTAATCATGGACCGGTTTTCCCGGTAATCCGTATTTGCG (site TAGTAATCTCG),2.65
14,TAGTACTCATGGACCGGTTTTCCCGGTAATCCGTATTTGAT (site TAGTACTCTAT),2.53
15,TAGTATACATGGACCGGTTTTCCCGGTAATCCGTATTTGTG (site TAGTATACTCA),0.807
16,TAGTCAACATGGACCGGTTTTCCCGGTAATCCGTATTTGTT (site TAGTCAACTAA),0.0293
